Assay results: patent US20260085049A1, “CRYSTAL FORM OF ERGOTHIONEINE” (NANJING NUTRABUILDING BIO-TECH CO., LTD., priority 2023, published 2026)

Assays:
[1] = Analysis and comparison of properties: hygroscopicity; assay type: physicochemical; conditions: solid forms prepared from crude ergothioneine
Procedure: (§1) X-ray diffraction (XRD), differential scanning calorimetry (DSC), elemental analysis, particle size analysis, quantitative nuclear magnetic resonance (NMR), Raman spectroscopy, infrared spectroscopy (IR), TGA, IPC-MS, DVS and other tests were carried out on the crystal forms prepared in the Examples.
(§2) Using crude ergothioneine as raw material, three crystal forms A, B and C were prepared respectively, and their properties were compared with those of amorphous ergothioneine.

[2] = Analysis and comparison of properties: moisture; assay type: physicochemical; conditions: solid forms prepared from crude ergothioneine
Procedure: as §1, §2

[3] = listed as amorphous ergothioneine

Row | Hygroscopicity [1] | Hygroscopicity [1, 3] | Moisture (%) [2] [%] | Moisture (%) [2, 3] [%] | SMILES
1 | Easily | strong hygroscopicity | 1.29 | 1.29 | C[N+](C)(C)[C@@H](Cc1c[nH]c(=S)[nH]1)C(=O)[O-] [Amorphous, ergothioneine]
2 | Stable |  | 0.09 |  | C[N+](C)(C)[C@@H](Cc1c[nH]c(=S)[nH]1)C(=O)[O-] [Crystal form C, ergothioneine]
3 | Stable |  | 0.10 |  | C[N+](C)(C)[C@@H](Cc1c[nH]c(=S)[nH]1)C(=O)[O-] [Crystal form B, ergothioneine]
4 | Stable |  | 0.07 |  | C[N+](C)(C)[C@@H](Cc1c[nH]c(=S)[nH]1)C(=O)[O-] [Crystal form A, ergothioneine]
